Reference: USRE38425E1, “Semicarbazones having CNS activity and pharmaceutical preparations containing same” (University of Saskatchewan Technologies, Inc., priority 1995, dated 2004)

Columns and labels:
[1] = tested on: rats; assay: MES screen after oral administration to rats; settings: oral administration to rats; for MES screen ED50: time t (h) per compound as in the table
Description: The majority of the compounds were examined for oral activity in rats. Initially doses of 50 mg/kg of the semicarbazones were administered.
Evaluation of most of the semicarbazones and analogs in the MES and neurotoxicity tests after oral administration to rats was performed.

[2] = tested on: mice; settings: intraperitoneal injection in mice; time t (h) per compound as in the table
[3] = tested on: mice; assay: MES screen after intraperitoneal injection in mice; format: in vivo; settings: intraperitoneal injection in mice; time t (h) per compound as in the table
[4] = tested on: mice; settings: intraperitoneal injection in mice; time t (h) per compound as in the table; remark: listed apart in the source
Description: An initial anticonvulsant evaluation of the compounds prepared according to Example 1 was undertaken by administering the compounds by the intraperitoneal route to mice. Protection and/or neurotoxicity was noted 0.5 and 4 hours after administering doses of 30, 100 and 300 mg/kg of each semicarbazone to the animals.
Doses of 30, 100 and 300 mg/kg were injected by the intraperitoneal route into mice and evaluated in the MES, scPTZ and neurotoxicity screens one half and four hours after administration.

[5] = tested on: rats; assay: neurotoxicity screen after oral administration to rats; settings: oral administration to rats; time t (h) per compound as in the table
Description: Initially doses of 50 mg/kg of the semicarbazones were administered.

NC(=O)NN=Cc1ccc(Oc2ccc(Oc3ccccc3)cc2)cc1 [Compound 4i]
MES screen 2 h: number of rats out of 4 which were protected ([1]; dose 50 mg/kg, 2 h): 1 | MES screen 4 h: number of rats out of 4 which were protected ([1]; dose 50 mg/kg, 4 h): 1

CCCCOc1ccc(Oc2ccc(C=NNC(N)=O)cc2)cc1 [Compound 5u]
MES screen 4 h: number of rats out of 4 which were protected ([1]; dose 12.5 mg/kg, 4 h): 2 | MES screen ED50 [1]: 45.81 mg/kg

CC(C)(C)CC(C)(C)c1ccc(Oc2ccc(C=NNC(N)=O)cc2)cc1 [Compound 5t]
neurotoxicity screen TD50 [2]: 124.53 mg/kg | MES screen ED50 [3]: 11.27 mg/kg | acPTZ screen ED50 [4]: >200 mg/kg

NC(=O)NN=Cc1ccc(Oc2ccc(Cl)cc2)cc1 [Compound 4c]
MES screen 0.25 h: number of rats out of 4 which were protected ([1]; dose 50 mg/kg, 0.25 h): 4 | MES screen 0.5 h: number of rats out of 4 which were protected ([1]; dose 50 mg/kg, 0.5 h): 4 | MES screen 1 h: number of rats out of 4 which were protected ([1]; dose 50 mg/kg, 1 h): 4 | MES screen 2 h: number of rats out of 4 which were protected ([1]; dose 50 mg/kg, 2 h): 4 | MES screen 4 h: number of rats out of 4 which were protected ([1]; dose 50 mg/kg, 4 h): 4

CCC(=NNC(N)=O)c1ccc(Oc2ccc(Br)cc2)cc1 [Compound 13h]
MES screen: number of rats out of 4 which were protected ([1]; dose 12.5 mg/kg, 0.5 h): 2 | MES screen: number of rats out of 4 which were protected ([1]; dose 12.5 mg/kg, 1 h): 4 | MES screen: number of rats out of 4 which were protected ([1]; dose 12.5 mg/kg, 2 h): 4 | MES screen: number of rats out of 4 which were protected ([1]; dose 12.5 mg/kg, 4 h): 4 | MES screen ED50 [1]: 4.39 mg/kg

CCC(=NNC(N)=O)c1ccc(Oc2ccc(F)cc2)cc1 [Compound 13f]
neurotoxicity screen TD50 [2]: 35.26 mg/kg | MES screen ED50 [3]: 5.46 mg/kg | MES screen: number of rats out of 4 which were protected ([1]; dose 12.5 mg/kg, 0.5 h): 2 | MES screen: number of rats out of 4 which were protected ([1]; dose 12.5 mg/kg, 1 h): 4 | MES screen: number of rats out of 4 which were protected ([1]; dose 12.5 mg/kg, 2 h): 4 | MES screen: number of rats out of 4 which were protected ([1]; dose 12.5 mg/kg, 4 h): 4 | MES screen ED50 [1]: 4.25 mg/kg | acPTZ screen ED50 [4]: 12.84 mg/kg

COc1ccc(Oc2ccc(C=NNC(N)=O)cc2)cc1 [Compound 4h]
MES screen 0.5 h: number of rats out of 4 which were protected ([1]; dose 50 mg/kg, 0.5 h): 4 | MES screen 1 h: number of rats out of 4 which were protected ([1]; dose 50 mg/kg, 1 h): 4 | MES screen 2 h: number of rats out of 4 which were protected ([1]; dose 50 mg/kg, 2 h): 4 | MES screen 4 h: number of rats out of 4 which were protected ([1]; dose 50 mg/kg, 4 h): 4

NC(=O)NN=Cc1ccc(Oc2ccc(Br)cc2)cc1 [Compound 4d]
MES screen 0.25 h: number of rats out of 4 which were protected ([1]; dose 50 mg/kg, 0.25 h): 1 | MES screen 0.5 h: number of rats out of 4 which were protected ([1]; dose 50 mg/kg, 0.5 h): 4 | MES screen 1 h: number of rats out of 4 which were protected ([1]; dose 50 mg/kg, 1 h): 4 | MES screen 2 h: number of rats out of 4 which were protected ([1]; dose 50 mg/kg, 2 h): 4 | MES screen 4 h: number of rats out of 4 which were protected ([1]; dose 50 mg/kg, 4 h): 4

N#Cc1ccc(Oc2ccc(C=NNC(N)=O)cc2)cc1 [Compound 4j]
MES screen 0.25 h: number of rats out of 4 which were protected ([1]; dose 12.5 mg/kg, 0.25 h): 2 | MES screen 0.5 h: number of rats out of 4 which were protected ([1]; dose 12.5 mg/kg, 0.5 h): 4 | MES screen 1 h: number of rats out of 4 which were protected ([1]; dose 12.5 mg/kg, 1 h): 4 | MES screen 2 h: number of rats out of 4 which were protected ([1]; dose 12.5 mg/kg, 2 h): 4 | MES screen 4 h: number of rats out of 4 which were protected ([1]; dose 12.5 mg/kg, 4 h): 4

CC(=NNC(N)=O)c1ccc(Oc2ccccc2)cc1 [Compound 13a]
neurotoxicity screen TD50 [2]: 73.48 mg/kg | MES screen ED50 [3]: 9.08 mg/kg | MES screen: number of rats out of 4 which were protected ([1]; dose 30 mg/kg, 0.25 h): 4 | MES screen: number of rats out of 4 which were protected ([1]; dose 30 mg/kg, 0.5 h): 4 | MES screen: number of rats out of 4 which were protected ([1]; dose 30 mg/kg, 1 h): 4 | MES screen: number of rats out of 4 which were protected ([1]; dose 30 mg/kg, 2 h): 4 | MES screen: number of rats out of 4 which were protected ([1]; dose 30 mg/kg, 4 h): 4 | MES screen ED50 [1]: 9.73 mg/kg | acPTZ screen ED50 [4]: 43.31 mg/kg

CCc1ccc(Oc2ccc(C=NNC(N)=O)cc2)cc1 [Compound 5p]
MES screen 0.5 h: number of rats out of 4 which were protected ([1]; dose 12.5 mg/kg, 0.5 h): 2 | MES screen 1 h: number of rats out of 4 which were protected ([1]; dose 12.5 mg/kg, 1 h): 4 | MES screen 2 h: number of rats out of 4 which were protected ([1]; dose 12.5 mg/kg, 2 h): 4 | MES screen 4 h: number of rats out of 4 which were protected ([1]; dose 12.5 mg/kg, 4 h): 4 | MES screen ED50 [1]: 6.48 mg/kg

Cc1ccc(Oc2ccc(C=NNC(N)=O)cc2)cc1 [Compound 4f]
neurotoxicity screen TD50 [2]: 203.73 mg/kg | neurotoxicity screen TD50 [5]: >500 mg/kg | MES screen ED50 [3]: 14.65 mg/kg | MES screen 0.25 h: number of rats out of 4 which were protected ([1]; dose 50 mg/kg, 0.25 h): 3 | MES screen 0.5 h: number of rats out of 4 which were protected ([1]; dose 50 mg/kg, 0.5 h): 4 | MES screen 1 h: number of rats out of 4 which were protected ([1]; dose 50 mg/kg, 1 h): 4 | MES screen 2 h: number of rats out of 4 which were protected ([1]; dose 50 mg/kg, 2 h): 4 | MES screen 4 h: number of rats out of 4 which were protected ([1]; dose 50 mg/kg, 4 h): 4 | MES screen ED50 [1]: 3.43 mg/kg | acPTZ screen ED50 [4]: 88.55 mg/kg

CC(=NNC(N)=O)c1ccccc1Oc1ccc(F)cc1 [Compound 14b]
MES screen: number of rats out of 4 which were protected ([1]; dose 30 mg/kg, 0.25 h): 1 | MES screen: number of rats out of 4 which were protected ([1]; dose 30 mg/kg, 0.5 h): 1 | MES screen: number of rats out of 4 which were protected ([1]; dose 30 mg/kg, 1 h): 3 | MES screen: number of rats out of 4 which were protected ([1]; dose 30 mg/kg, 2 h): 3 | MES screen: number of rats out of 4 which were protected ([1]; dose 30 mg/kg, 4 h): 2 | MES screen ED50 [1]: 43.37 mg/kg

NC(=O)NN=Cc1ccc(OS(=O)(=O)c2ccccc2)cc1 [Compound 15f]
neurotoxicity screen TD50 [2]: 113.00 mg/kg | MES screen ED50 [3]: 25.27 mg/kg | MES screen: number of rats out of 4 which were protected ([1]; dose 12.5 mg/kg, 0.25 h): 1 | MES screen: number of rats out of 4 which were protected ([1]; dose 12.5 mg/kg, 0.5 h): 2 | MES screen: number of rats out of 4 which were protected ([1]; dose 12.5 mg/kg, 1 h): 2 | MES screen: number of rats out of 4 which were protected ([1]; dose 12.5 mg/kg, 2 h): 4 | MES screen: number of rats out of 4 which were protected ([1]; dose 12.5 mg/kg, 4 h): 3 | acPTZ screen ED50 [4]: >100 mg/kg
